# Reference: PubChem BioAssay (NCI)
#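 Assay format: 96-well plates, 48-hour exposure. GI50 marks 50% less growth. At the TGI there is no net growth.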
# Assays:
# Test in all cases: NCI tumour cell line growth inhibition, 48 h
# [1] = tested on: KM12 colon
# [2] = tested on: OVCAR-5 ovarian
# [3] = tested on: SK-MEL-2 melanoma
# [4] = tested on: RPMI-8226 leukemia
# [5] = tested on: SNB-75 CNS
# [6] = tested on: DU-145 prostate
# [7] = tested on: SW-620 colon
# [8] = tested on: HCC-2998 colon
# [9] = tested on: SR leukemia
# [10] = tested on: K-562 leukemia
# [11] = tested on: MALME-3M melanoma
# [12] = tested on: CAKI-1 renal
# [13] = tested on: SN12C renal
# [14] = tested on: MDA-MB-435
# [15] = tested on: HS 578T breast
# [16] = tested on: OVCAR-3 ovarian
# [17] = tested on: T-47D breast
# [18] = tested on: SK-MEL-5 melanoma
# [19] = tested on: BT-549 breast
# [20] = tested on: HL-60(TB) leukemia
# [21] = tested on: UO-31 renal
# [22] = tested on: ACHN renal
# [23] = tested on: TK-10 renal
# [24] = tested on: A498 renal
# [25] = tested on: HT29 colon
# [26] = tested on: MOLT-4 leukemia
# [27] = tested on: NCI-H460 lung
# [28] = tested on: CCRF-CEM leukemia
compound,measurement,setting,value
COc1ccc2[nH]cc(/C=N/Nc3ccnc4cc(Cl)ccc34)c2c1,GI50,[1],1650 nM
same,TGI,[1],3920 nM
same,GI50,[2],1490 nM
same,TGI,[2],2840 nM
same,GI50,[3],1830 nM
same,TGI,[3],3480 nM
same,GI50,[4],271 nM
same,TGI,[4],671 nM
same,GI50,[5],1560 nM
same,TGI,[5],2930 nM
same,GI50,[6],729 nM
same,TGI,[6],1980 nM
same,GI50,[7],186 nM
same,TGI,[7],379 nM
same,GI50,[8],1670 nM
same,TGI,[8],3190 nM
same,GI50,[9],171 nM
same,TGI,[9],4140 nM
same,GI50,[10],300 nM
same,TGI,[10],> 100000 nM
same,GI50,[11],1760 nM
same,TGI,[11],3220 nM
same,GI50,[12],1540 nM
same,TGI,[12],2910 nM
same,GI50,[13],1600 nM
same,TGI,[13],3000 nM
same,GI50,[14],1670 nM
same,TGI,[14],3060 nM
same,GI50,[15],1990 nM
same,TGI,[15],4810 nM
same,GI50,[16],1580 nM
same,TGI,[16],3160 nM
same,GI50,[17],1280 nM
same,TGI,[17],3590 nM
same,GI50,[18],1650 nM
same,TGI,[18],3060 nM
same,GI50,[19],1680 nM
same,TGI,[19],3090 nM
same,GI50,[20],265 nM
same,TGI,[20],859 nM
same,GI50,[21],1470 nM
same,TGI,[21],2780 nM
same,GI50,[22],346 nM
same,TGI,[22],1070 nM
same,GI50,[23],1900 nM
same,TGI,[23],3350 nM
same,GI50,[24],1490 nM
same,TGI,[24],2830 nM
same,GI50,[25],219 nM
same,TGI,[25],482 nM
same,GI50,[26],265 nM
same,TGI,[26],713 nM
same,GI50,[27],202 nM
same,TGI,[27],409 nM
same,GI50,[28],304 nM
same,TGI,[28],1120 nM
